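A five-concentration, 48-hour dose response in 96-well plates underlies each endpoint, interpolated linearly between surrounding concentrations. GI50 = concentration required for 50% inhibition of growth. At the TGI there is no net growth.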
Assays:
Test in all cases: NCI-60 cell line screen, 48 h
[1] = system: MALME-3M melanoma
[2] = system: EKVX NSCLC
[3] = system: DU-145 prostate
[4] = system: U251 CNS
[5] = system: HCT-116 colon
[6] = system: SF-268 CNS
[7] = system: MDA-MB-435
[8] = system: HL-60(TB) leukemia
[9] = system: COLO 205 colon
[10] = system: IGROV1 ovarian
[11] = system: NCI-H522 lung
[12] = system: HS 578T breast
[13] = system: 786-0 renal
[14] = system: MCF7 breast
[15] = system: SK-OV-3 ovarian
[16] = system: HCC-2998 colon
[17] = system: HOP-92 NSCLC
[18] = system: SN12C renal
[19] = system: UACC-257 melanoma
[20] = system: OVCAR-8 ovarian
[21] = system: HCT-15 colon
[22] = system: SK-MEL-28 melanoma
[23] = system: RPMI-8226 leukemia
[24] = system: HT29 colon
[25] = system: M14 melanoma
[26] = system: A549 NSCLC
[27] = system: KM12 colon
[28] = system: NCI/ADR-RES ovarian
[29] = system: A498 renal
[30] = system: NCI-H226 lung
[31] = system: SNB-75 CNS
[32] = system: OVCAR-5 ovarian
[33] = system: TK-10 renal
[34] = system: MDA-MB-231 breast
[35] = system: T-47D breast
[36] = system: SNB-19 CNS
[37] = system: SK-MEL-5 melanoma
[38] = system: SW-620 colon
[39] = system: RXF 393 renal
[40] = system: K-562 leukemia
[41] = system: BT-549 breast
[42] = system: OVCAR-3 ovarian
[43] = system: SF-295 CNS
[44] = system: LOX IMVI melanoma
[45] = system: CAKI-1 renal
[46] = system: HOP-62 NSCLC
[47] = system: SR leukemia
[48] = system: SK-MEL-2 melanoma
[49] = system: ACHN renal
[50] = system: UO-31 renal
[51] = system: OVCAR-4 ovarian
[52] = system: SF-539 CNS
[53] = system: CCRF-CEM leukemia
[54] = system: UACC-62 melanoma
[55] = system: MOLT-4 leukemia
[56] = system: PC-3 prostate
[57] = system: NCI-H460 lung

O=C(CN1CCOCC1)NNc1ncnc2ccccc12
GI50 [1]: 1.74 µM
TGI [1]: 3.52 µM
GI50 [2]: 14.2 µM
TGI [2]: 28 µM
GI50 [3]: 17.4 µM
TGI [3]: 32.3 µM
GI50 [4]: 13.9 µM
TGI [4]: 27.5 µM
GI50 [5]: 3.14 µM
TGI [5]: 12.3 µM
GI50 [6]: 3.95 µM
TGI [6]: 18.5 µM
GI50 [7]: 13.7 µM
TGI [7]: 27 µM
GI50 [8]: 5.17 µM
TGI [8]: 26.2 µM
GI50 [9]: 2.42 µM
TGI [9]: 5.37 µM
GI50 [10]: 17 µM
TGI [10]: 36.3 µM
GI50 [11]: 1.41 µM
TGI [11]: 2.92 µM
GI50 [12]: 20.6 µM
TGI [12]: 64.6 µM
GI50 [13]: 2.23 µM
TGI [13]: 5.17 µM
GI50 [14]: 4.33 µM
TGI [14]: 21.9 µM
GI50 [15]: 16.3 µM
TGI [15]: 30.1 µM
GI50 [16]: 16.9 µM
TGI [16]: 31.4 µM
GI50 [17]: 13.3 µM
TGI [17]: 27.1 µM
GI50 [18]: 14.9 µM
TGI [18]: 28.6 µM
GI50 [19]: 14.1 µM
TGI [19]: 28 µM
GI50 [20]: 17.1 µM
TGI [20]: 33.1 µM
GI50 [21]: 11.9 µM
TGI [21]: 26.4 µM
GI50 [22]: 12.2 µM
TGI [22]: 24.5 µM
GI50 [23]: 16.9 µM
TGI [23]: 46.6 µM
GI50 [24]: 15.6 µM
TGI [24]: 33.7 µM
GI50 [25]: 10.1 µM
TGI [25]: 25.2 µM
GI50 [26]: 17.4 µM
TGI [26]: 34.7 µM
GI50 [27]: 18.7 µM
TGI [27]: 41.4 µM
GI50 [28]: 20.6 µM
TGI [28]: 50.2 µM
GI50 [29]: > 100 µM
TGI [29]: > 100 µM
GI50 [30]: 15.8 µM
TGI [30]: 39.7 µM
GI50 [31]: 16 µM
TGI [31]: 30 µM
GI50 [32]: 12.9 µM
TGI [32]: 25.9 µM
GI50 [33]: 21.5 µM
TGI [33]: 36.3 µM
GI50 [34]: 14.4 µM
TGI [34]: 29.6 µM
GI50 [35]: 4.1 µM
TGI [35]: 19.7 µM
GI50 [36]: 16.2 µM
TGI [36]: 30.7 µM
GI50 [37]: 18 µM
TGI [37]: 33.3 µM
GI50 [38]: 2.48 µM
TGI [38]: 6.47 µM
GI50 [39]: 2.29 µM
TGI [39]: 6.12 µM
GI50 [40]: 3.18 µM
TGI [40]: 12.9 µM
GI50 [41]: 13.8 µM
TGI [41]: 28 µM
GI50 [42]: 3.78 µM
TGI [42]: 14.1 µM
GI50 [43]: 19.5 µM
TGI [43]: 34.4 µM
GI50 [44]: 1.31 µM
TGI [44]: 11.2 µM
GI50 [45]: 2.76 µM
GI50 [46]: 17.9 µM
TGI [46]: 32.9 µM
GI50 [47]: 15.7 µM
TGI [47]: 54.7 µM
GI50 [48]: 15.6 µM
TGI [48]: 30.5 µM
GI50 [49]: 1.82 µM
TGI [49]: 3.21 µM
GI50 [50]: 13.3 µM
TGI [50]: 26.1 µM
GI50 [51]: 1.83 µM
TGI [51]: 3.85 µM
GI50 [52]: 13.2 µM
TGI [52]: 26 µM
GI50 [53]: 3.34 µM
TGI [53]: 71 µM
GI50 [54]: 13.7 µM
TGI [54]: 27.2 µM
GI50 [55]: 15.6 µM
TGI [55]: 56.9 µM
GI50 [56]: 14.7 µM
TGI [56]: 30.4 µM
GI50 [57]: 19.1 µM
TGI [57]: 38.9 µM
